Measurements published in PubChem BioAssay (NCI).
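Step 1: Grow cells in 96-well plates. Step 2: Expose to compound for 48 hours at 5 concentrations. Step 3: Interpolate endpoints linearly; if unreached, use highest concentration. Here, GI50 denotes the concentration required for 50% inhibition of growth. TGI: concentration producing complete growth inhibition.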

Tests used:
Experiment in all cases: NCI anticancer screen, dose series, 48 h
SK-MEL-28 melanoma = test system: SK-MEL-28 melanoma
COLO 205 colon = test system: COLO 205 colon
T-47D breast = test system: T-47D breast
OVCAR-4 ovarian = test system: OVCAR-4 ovarian
SN12C renal = test system: SN12C renal
EKVX NSCLC = test system: EKVX NSCLC
UACC-62 melanoma = test system: UACC-62 melanoma
U251 CNS = test system: U251 CNS
SNB-75 CNS = test system: SNB-75 CNS
PC-3 prostate = test system: PC-3 prostate
MDA-MB-231 breast = test system: MDA-MB-231 breast
LOX IMVI melanoma = test system: LOX IMVI melanoma
786-0 renal = test system: 786-0 renal
RPMI-8226 leukemia = test system: RPMI-8226 leukemia
UO-31 renal = test system: UO-31 renal
MALME-3M melanoma = test system: MALME-3M melanoma
NCI/ADR-RES ovarian = test system: NCI/ADR-RES ovarian
K-562 leukemia = test system: K-562 leukemia
BT-549 breast = test system: BT-549 breast
SK-MEL-2 melanoma = test system: SK-MEL-2 melanoma
HCT-116 colon = test system: HCT-116 colon
OVCAR-8 ovarian = test system: OVCAR-8 ovarian
NCI-H226 lung = test system: NCI-H226 lung
NCI-H522 lung = test system: NCI-H522 lung
HS 578T breast = test system: HS 578T breast
HCC-2998 colon = test system: HCC-2998 colon
SK-MEL-5 melanoma = test system: SK-MEL-5 melanoma
MDA-MB-435 = test system: MDA-MB-435
RXF 393 renal = test system: RXF 393 renal
SNB-19 CNS = test system: SNB-19 CNS
CCRF-CEM leukemia = test system: CCRF-CEM leukemia
HOP-62 NSCLC = test system: HOP-62 NSCLC
ACHN renal = test system: ACHN renal
NCI-H460 lung = test system: NCI-H460 lung
HCT-15 colon = test system: HCT-15 colon
OVCAR-5 ovarian = test system: OVCAR-5 ovarian
SR leukemia = test system: SR leukemia
MCF7 breast = test system: MCF7 breast
SW-620 colon = test system: SW-620 colon
IGROV1 ovarian = test system: IGROV1 ovarian
A498 renal = test system: A498 renal
SF-295 CNS = test system: SF-295 CNS
KM12 colon = test system: KM12 colon
TK-10 renal = test system: TK-10 renal
A549 NSCLC = test system: A549 NSCLC
CAKI-1 renal = test system: CAKI-1 renal
OVCAR-3 ovarian = test system: OVCAR-3 ovarian
HT29 colon = test system: HT29 colon
DU-145 prostate = test system: DU-145 prostate
SF-539 CNS = test system: SF-539 CNS
HOP-92 NSCLC = test system: HOP-92 NSCLC
UACC-257 melanoma = test system: UACC-257 melanoma
HL-60(TB) leukemia = test system: HL-60(TB) leukemia
SF-268 CNS = test system: SF-268 CNS
MOLT-4 leukemia = test system: MOLT-4 leukemia
SK-OV-3 ovarian = test system: SK-OV-3 ovarian
M14 melanoma = test system: M14 melanoma
NCI-H23 lung = test system: NCI-H23 lung

**Q.** What does the source list for `O=c1c2c(=NCCCN3CCCC3)cc3c(=O)n(CCCN4CCCC4)c(=O)c4c(NCCCN5CCCC5)cc(c(O)n1CCCN1CCCC1)c2c4-3`?
**A.** GI50 (SK-MEL-28 melanoma): 2530 nM; TGI (SK-MEL-28 melanoma): 5.31 µM; GI50 (COLO 205 colon): 1890 nM; TGI (COLO 205 colon): 4.21 µM; GI50 (T-47D breast): 2890 nM; TGI (T-47D breast): 18.1 µM; GI50 (OVCAR-4 ovarian): 2730 nM; GI50 (SN12C renal): 3.11 µM; TGI (SN12C renal): 34.2 µM; GI50 (EKVX NSCLC): 2790 nM; TGI (EKVX NSCLC): 12.9 µM; GI50 (UACC-62 melanoma): 2340 nM; TGI (UACC-62 melanoma): 5.12 µM; GI50 (U251 CNS): 647 nM; TGI (U251 CNS): 10.4 µM; GI50 (SNB-75 CNS): 1640 nM; TGI (SNB-75 CNS): 4.1 µM; GI50 (PC-3 prostate): 3.66 µM; TGI (PC-3 prostate): 36.7 µM; GI50 (MDA-MB-231 breast): 4.89 µM; TGI (MDA-MB-231 breast): 20.7 µM; GI50 (LOX IMVI melanoma): 1870 nM; TGI (LOX IMVI melanoma): 4.19 µM; GI50 (786-0 renal): 12.9 µM; TGI (786-0 renal): > 100 µM; GI50 (RPMI-8226 leukemia): 4.39 µM; TGI (RPMI-8226 leukemia): 45.8 µM; GI50 (UO-31 renal): 4.5 µM; TGI (UO-31 renal): 22 µM; GI50 (MALME-3M melanoma): 2730 nM; TGI (MALME-3M melanoma): 7.98 µM; GI50 (NCI/ADR-RES ovarian): 20.2 µM; TGI (NCI/ADR-RES ovarian): > 100 µM; GI50 (K-562 leukemia): 3.36 µM; TGI (K-562 leukemia): > 100 µM; GI50 (BT-549 breast): 14.1 µM; TGI (BT-549 breast): 36.1 µM; GI50 (SK-MEL-2 melanoma): 2220 nM; TGI (SK-MEL-2 melanoma): 6.57 µM; GI50 (HCT-116 colon): 2010 nM; TGI (HCT-116 colon): 6.43 µM; GI50 (OVCAR-8 ovarian): 1740 nM; TGI (OVCAR-8 ovarian): 12.3 µM; GI50 (NCI-H226 lung): 1070 nM; TGI (NCI-H226 lung): 7.8 µM; GI50 (NCI-H522 lung): 1440 nM; TGI (NCI-H522 lung): 5.53 µM; GI50 (HS 578T breast): 2670 nM; TGI (HS 578T breast): 9.63 µM; GI50 (HCC-2998 colon): 6.84 µM; TGI (HCC-2998 colon): 23.1 µM; GI50 (SK-MEL-5 melanoma): 2670 nM; TGI (SK-MEL-5 melanoma): 7.17 µM; GI50 (MDA-MB-435): 3.04 µM; TGI (MDA-MB-435): 11.3 µM; GI50 (RXF 393 renal): 2830 nM; TGI (RXF 393 renal): 8.23 µM; GI50 (SNB-19 CNS): 2110 nM; TGI (SNB-19 CNS): 10.6 µM; GI50 (CCRF-CEM leukemia): 5.22 µM; TGI (CCRF-CEM leukemia): 71 µM; GI50 (HOP-62 NSCLC): 1420 nM; TGI (HOP-62 NSCLC): 4.54 µM; GI50 (ACHN renal): 2550 nM; TGI (ACHN renal): 26.4 µM; GI50 (NCI-H460 lung): 1780 nM; TGI (NCI-H460 lung): 4.01 µM; GI50 (HCT-15 colon): 6.91 µM; TGI (HCT-15 colon): > 100 µM; GI50 (OVCAR-5 ovarian): 1640 nM; TGI (OVCAR-5 ovarian): 4.74 µM; GI50 (SR leukemia): 6.88 µM; TGI (SR leukemia): 81.9 µM; GI50 (MCF7 breast): 1420 nM; TGI (MCF7 breast): 10.9 µM; GI50 (SW-620 colon): 1720 nM; TGI (SW-620 colon): 14.5 µM; GI50 (IGROV1 ovarian): 3.51 µM; TGI (IGROV1 ovarian): 12 µM; GI50 (A498 renal): 2130 nM; TGI (A498 renal): 4.98 µM; GI50 (SF-295 CNS): 1950 nM; TGI (SF-295 CNS): 8.61 µM; GI50 (KM12 colon): 3.27 µM; TGI (KM12 colon): 12.7 µM; GI50 (TK-10 renal): 2220 nM; TGI (TK-10 renal): 8.65 µM; GI50 (A549 NSCLC): 1450 nM; TGI (A549 NSCLC): 3.84 µM; GI50 (CAKI-1 renal): 10.6 µM; TGI (CAKI-1 renal): 42 µM; GI50 (OVCAR-3 ovarian): 2880 nM; TGI (OVCAR-3 ovarian): 7.03 µM; GI50 (HT29 colon): 1510 nM; TGI (HT29 colon): 6.49 µM; GI50 (DU-145 prostate): 2960 nM; TGI (DU-145 prostate): 7.79 µM; GI50 (SF-539 CNS): 2420 nM; TGI (SF-539 CNS): 8.98 µM; GI50 (HOP-92 NSCLC): 2150 nM; TGI (HOP-92 NSCLC): 18.8 µM; GI50 (UACC-257 melanoma): 2980 nM; TGI (UACC-257 melanoma): 8.77 µM; GI50 (HL-60(TB) leukemia): 11.2 µM; TGI (HL-60(TB) leukemia): 73.5 µM; GI50 (SF-268 CNS): 2230 nM; TGI (SF-268 CNS): 8.66 µM; GI50 (MOLT-4 leukemia): 6.63 µM; TGI (MOLT-4 leukemia): > 100 µM; GI50 (SK-OV-3 ovarian): 2400 nM; TGI (SK-OV-3 ovarian): 6.93 µM; GI50 (M14 melanoma): 6.86 µM; TGI (M14 melanoma): 20.3 µM; GI50 (NCI-H23 lung): 5.43 µM; TGI (NCI-H23 lung): 24.1 µM
